Assay results published in patent US20190119282A1, “IMIDAZOPYRIDAZINES USEFUL AS INHIBITORS OF THE PAR-2 SIGNALING PATHWAY” (Vertex Pharmaceuticals Incorporated, priority 2013, published 2019).
Marks after values point to notes of the source that are not given here.

Assays:
[1] = system: Thrombin-stimulated Ca2+ response in HT-29 cells; assay: Ca FLIPR TETRA assay, ANTAGONIST mode, stimulation with 1 U/mL Thrombin; type: cell-based, human; settings: Homo sapiens; HT-29 cells, antagonist mode, stimulation with 1 U/mL Thrombin
Summary of the method: (§1)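 FLIPR Tetra Ca2+ read-out in HT-29 cells, calcium 5 dye. Compound preincubation 30 min r.t., with an initial read for agonist activity. Final activator levels: SLIGKV 8 μM, thrombin 1 U/mL, trypsin 3.1 U/mL, UTP 0.6 μM.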

[2] = In vivo rat pharmacokinetics (intravenous and oral); settings: plasma; for clearance: intravenous 0.5 to 1 mg/kg, read-out: Clp; for Vd: intravenous, read-out: Vss; for bioavailability: oral by gavage; for half-life: read-out: T ½ (converted)
Summary of the method: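 Rats dosed by tail-vein bolus at 0.5–1 mg/kg in NMP-based solutions, or by oral gavage at 1–600 mg/kg as solution, suspension or spray-dried dispersion. Jugular blood in K3EDTA gave plasma or citrate-diluted whole blood; LC-MS/MS quantification, non-compartmental PK analysis.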

[3] = system: TNBS-induced colitis; assay: Mouse TNBS-induced colitis model; type: in vivo, BALB/c mice; settings: mice
Procedure: (§2) Male Sprague Dawley rats and BALB/c mice were housed in groups in a temperature controlled room and were acclimatized in the animal facility for at least three days prior to use. Experiments were performed during the light phase of the cycle. Animals have food and water ad libitum.
Example 65: Mouse TNBS-Induced Colitis Model
Colitis was induced by intra-colonic administration of 1.5 mg of TNBS in 75 μl of 40% v/volume ethanol solution under isoflurane anesthesia at a depth of 4 cm from the anal verge. Mice were kept with their heads down for 30 additional seconds post administration to ensure distribution of TNBS. Disease activity scores were assessed for a period of 5 days starting prior to TNBS injection (baseline reading). […] Test compounds or vehicle (0.5% MC/0.1% SDS) were systemically administered at the indicated doses in a volume of 10 mL/kg each day for 5 days and starting 1 day before TNBS.
(§3) Data are expressed as the mean % effect. Statistical significance was assessed using t-test for comparison between naive and inflamed rats, and one-way ANOVA followed by post-hoc comparison test for overall drug effectiveness. A difference between groups is considered significant with a p value of <0.05. *, p<0.05; **, p<0.01; ***, p<0.001 vs. vehicle.

[4] = molecular target: T1, PAR2 (HT-29 cells, trypsin activation) (Homo sapiens, UniProt P55085); assay: Ca FLIPR TETRA assay, ANTAGONIST mode, stimulation with 3.1 U/mL trypsin; type: cell-based; settings: HT-29 cells, antagonist mode, stimulation with 3.1 U/mL trypsin
T1 construct: host or cells: HT-29 cells
T1 sequence (P55085 26-397): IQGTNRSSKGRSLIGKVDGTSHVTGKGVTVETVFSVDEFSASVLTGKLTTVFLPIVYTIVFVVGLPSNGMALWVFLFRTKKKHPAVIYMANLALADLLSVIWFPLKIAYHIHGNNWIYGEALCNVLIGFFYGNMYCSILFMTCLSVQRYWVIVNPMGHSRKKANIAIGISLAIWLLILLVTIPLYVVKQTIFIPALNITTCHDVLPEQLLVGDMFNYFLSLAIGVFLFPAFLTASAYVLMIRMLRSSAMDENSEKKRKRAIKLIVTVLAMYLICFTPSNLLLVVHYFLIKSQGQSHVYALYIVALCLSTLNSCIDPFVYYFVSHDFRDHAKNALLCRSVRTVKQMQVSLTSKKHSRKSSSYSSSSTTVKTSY
Summary of the method: as §1

[5] = system: carrageenan-induced paw edema; assay: Rat carrageenan-induced paw edema model; type: in vivo, Sprague Dawley rats; settings: for % inhibition of an established carrageenan induced rat paw edema: given 2 hours post carrageenan challenge; for % inhibition of carrageenan induced paw edema: given before carrageenan challenge
Procedure: as §2
Example 63: Rat Carrageenan-Induced Paw Edema Model
Peripheral inflammation was induced by intra-plantar administration of 100 ul of a 1% w/volume (in saline) carrageenan solution under isoflurane anesthesia. The degree of swelling was assessed using the plethysmometer at 2-3-4-5-6 h after carrageenan injection. Test compound or vehicle (0.5% MC/0.1% SDS) was systemically administered at the indicated doses in a volume of 5 mL/kg either I-3 hour before carrageenan challenge (Table 9) or 2 hours post carrageenan challenge (Table 10).
as §3

[6] = system: tryptase-induced mechanical hypersensitivity; assay: Rat tryptase-induced mechanical hypersensitivity model; type: in vivo, Sprague Dawley rats; settings: for % inhibition of tryptase-induced nociception: given 3-18 h before the tryptase challenge; for % inhibition of an established tryptase-induced nociception: given 30 minutes post tryptase challenge
Procedure: as §2
Example 64: Rat Tryptase-Induced Mechanical Hypersensitivity Model
Peripheral sensitization was induced by intra-dermal administration of 500 ng of tryptase in a volume of 10 ul PBS under isoflurane anesthesia. Rats were then placed on a wire mesh grid in separate compartments and allowed to acclimatize before testing. Mechanical hypersensitivity was assessed 30 min after tryptase injection using calibrated von Frey filaments applied perpendicular to the plantar surface of the affected paw using the up-and-down method. Test compounds or vehicle (0.5% MC/0.1% SDS) were systemically administered at doses indicated in a volume of 5 mL/kg 3-18 h before the tryptase challenge (Table 11) or 30 minutes post tryptase challenge (Table 12).
as §3

[7] = molecular target: T2, PAR2 (HT-29 cells, SLIGKV activation) (Homo sapiens, UniProt P55085); assay: Ca FLIPR TETRA assay, ANTAGONIST mode, stimulation with 8 μM SLIGKV; type: cell-based; settings: HT-29 cells, antagonist mode, stimulation with 8 μM SLIGKV
T2 construct: host or cells: HT-29 cells
T2 sequence (P55085 26-397): T1 sequence (P55085 26-397)
Summary of the method: as §1

[8] = system: UTP-stimulated Ca2+ response in HT-29 cells; assay: Ca FLIPR TETRA assay, ANTAGONIST mode, stimulation with 0.6 μM UTP; type: cell-based, human; settings: Homo sapiens; HT-29 cells, antagonist mode, stimulation with 0.6 μM UTP
Summary of the method: as §1

Structure (SMILES): CC(C)(C)c1cc(-c2ccc(F)cc2)nn2cc(C(=O)N3CCNC(=O)C3(C)C)nc12 [Compound I-191, 4-(8-(tert-butyl)-6-(4-fluorophenyl)imidazo[1,2-b]pyridazine-2-carbonyl)-3,3-dimethylpiperazin-2-one]
- IC50 [1]: 320 nM
- clearance [2]: 0.7 mL/min/kg
- Vd [2]: 3.2 L/kg
- bioavailability [2]: 66%
- half-life [2]: 56.9 h
- % improvement in Disease activity scores ([3]; dose 15 mg/kg each day for 5 days starting 1 day before TNBS): 21** %
- % improvement in Disease activity scores ([3]; dose 50 mg/kg each day for 5 days starting 1 day before TNBS): 36*** %
- IC50 [4]: 2.3 nM
- % inhibition of an established carrageenan induced rat paw edema ([5]; dose 0.6 mg/kg): 26%
- % inhibition of an established carrageenan induced rat paw edema ([5]; dose 2 mg/kg): 40* %
- % inhibition of an established carrageenan induced rat paw edema ([5]; dose 3 mg/kg): 46*** %
- % inhibition of an established carrageenan induced rat paw edema ([5]; dose 6 mg/kg): 48* %
- % inhibition of an established carrageenan induced rat paw edema ([5]; dose 10 mg/kg): 50*** %
- % inhibition of an established carrageenan induced rat paw edema ([5]; dose 30 mg/kg): 57*** %
- % inhibition of tryptase-induced nociception ([6]; dose 1 mg/kg): 26%
- % inhibition of tryptase-induced nociception ([6]; dose 3 mg/kg): 36%
- % inhibition of tryptase-induced nociception ([6]; dose 10 mg/kg): 40** %
- IC50 [7]: 1.4 nM
- IC50 [8]: 440 nM

Structure (SMILES): Cc1cc(-c2cc(C(C)C)c3nc(C(=O)N4CCNC(=O)C4(C)C)cn3n2)ccc1F [Compound I-244, 4-[6-(4-fluoro-3-methyl-phenyl)-8-isopropyl-imidazo[1,2-b]pyridazine-2-carbonyl]-3,3-dimethyl-piperazin-2-one]
- IC50 [1]: 3750 nM
- clearance [2]: 4.8 mL/min/kg
- Vd [2]: 1.6 L/kg
- bioavailability [2]: 70%
- half-life [2]: 5.1 h
- IC50 [4]: 10.2 nM
- % inhibition of carrageenan induced paw edema ([5]; dose 2 mg/kg): 42** %
- % inhibition of carrageenan induced paw edema ([5]; dose 6 mg/kg): 51** %
- % inhibition of carrageenan induced paw edema ([5]; dose 20 mg/kg): 67*** %
- % inhibition of an established tryptase-induced nociception ([6]; dose 2 mg/kg): 21* %
- % inhibition of an established tryptase-induced nociception ([6]; dose 6 mg/kg): 43* %
- % inhibition of an established tryptase-induced nociception ([6]; dose 20 mg/kg): 48* %
- IC50 [7]: 7.5 nM
- IC50 [8]: 3650 nM
